Results as given in patent US20100248229A1, “INVITRO HUMAN EMBRYONIC MODEL AND A METHOD THEREOF” (Stempeutics Research Private Limited, priority 2007, published 2010).
“Also recorded” adds a separate entry of the source.

Tests used:
Assay type in all cases: cell-based, human
[1] = system: EBs derived from hESC line HUES9; experiment: Comet assay: DNA fragmentation in EBs; details: EBs exposed for 48 hours
Method: Comet assay: Detection of DNA damage in individual EBs was carried out with a slight modification of the method described by. Comet tail length was calculated by measuring the streak of DNA comet tail between the edge of the embryoid bodies till the end of tail using Nikon Eclipse 90i microscope (Nikon Corporation, Japan) and Image-Pro Express software (Media Cybernetics, Inc, Silver Spring, Md.).

hESCs (EB formation) = experiment: Effect on the formation of EBs from hESCs; details: 10 pg/ml and above
Method: Human Embryonic Stem Cells (hESCs) cultured on feeder cells of mouse or human origin, or cultured in feeder free conditions were exposed to several different dilutions of the drug for 6 days and subjected to Embryoid Body (EB) formation on non adherent plates, in presence of the drug for another 4 days. The control set was free from any extraneous addition of drugs. The formation of normal EBs in the control was evaluated by testing the expression of all the germ lineage, pluripotency and epigenomic markers as given in table Nos. 1-7 by RT-PCR, Flow Cytometry and Immunofluorescence. Alteration in the expression profiles of these genes in the treated EBs indicated a detrimental effect on embryonic development. A failure to form nicely cavitating EBs, as observed under the microscope, or a delay in the formation of the EBs as compared to the control indicated a possible embryo toxic effect of the drug.
The effect of molecules/compounds was screened. The compound, such as Rho Kinases inhibitor Y27632, 5-Azacytidine, and gram negative bacterial endotoxin lipopolysaccharide (LPS) on the formation of EBs from hESCs were screened for their toxic activity. LPS is known to be involved in genital tract infection related pathogenesis and pregnancy losses.

[2] = system: EBs derived from hESC line HUES9; experiment: Morphology of EBs under the microscope; details: 12.5 pg/ml for 48 hrs, day 4.5
Description: (§1) Exposure of EBs to LPS: EBs at day-2.5 were exposed to 12.5 pg/ml of Endotoxin/lipopolysaccharide (LPS) (Sigma) for 48 hrs supplemented in culture medium. The normal and the endotoxin treated EBs were harvested on day 4.5. Post exposure, the control and endotoxin treated EBs were divided in two groups. One group was lysed in TRIZOL for RNA isolation and the other group was fixed in 4% paraformaldehyde for immunofluorescence. The expression profile of the ectoderm, endoderm, mesoderm and trophectoderm lineage markers like PHI-tubulin, GATA4, BMP2, Brachury and β-hCG etc. were studied by RT-PCR and Immunofluorescence. The expression of the LPS-inducible and pluripotency related DNA binding protein HMGB1 was also studied in both the control and treated EBs.
The HUES9 cells were harvested on day 5 and used for induction of EBs. The control EBs were collected on day 4.5 of culture (FIG. 4b). The LPS treated EBs were also collected on day 4.5 and were compared with the normal for morphological changes under the microscope (FIG. 4c). […] The normal and LPS treated EBs were screened for pluripotency and the germ lineage markers. […] HMGB1 mRNA expression was not found in the normal EBs (FIG. 5). […] Immunofluorescence localization of HMGB1 and the mesoderm marker Brachury was done to check the protein expressions. […]

EBs = experiment: Methylation specific PCR (MSP) and mRNA expression of epigenetically regulated genes in EBs; details: 48 hrs, 5 ug/ml
Description: Methylation status of several of the epigenetically regulated genes and the imprinted genes in response to exposure to various compounds/drugs or biologicals were screened.

[3] = system: EBs derived from hESC line HUES9; experiment: Immunofluorescence localization of HMGB1 and Brachury in EBs; details: for Brachury protein expression (immunofluorescence): day 4.5, normal EBs positive
Description: as §1, with “The normal and the endotoxin treated EBs were harvested on day 4.5.” left out
Immunofluorescence and Cell counting: HESCs were grown on coverslips coated with MEFs and then fixed with 4% paraformaldehyde and 5% sucrose (Sigma) followed by permeabilization in 0.2% Triton X100 (Sigma). The slides were then incubated with primary antibodies 1:500 dilution of SSEA4 (Chemicon, Calif., USA), 5 ug/ml Nanog (Santa Cruz Biotechnology, CA, USA), 10 μg/ml Brachury (R&D Systems Inc. Minneapolis, USA), and 1.5 μg/ml HMGB1 (Sigma) overnight at 4° C. After washing thrice with PBS, fluorescein isothiocyanate/Texas red-labeled Secondary antibodies against the primary goat/rabbit/mouse were added as 1:500 dilutions and incubated for 2 hours. DAPI (Sigma) was used for nuclear staining and then washed with PBS. The negative controls were done without primary antibodies. Slides were mounted with DABCC (Sigma) and images were acquired using Nikon Eclipse 90i microscope (Nikon Corporation, Japan) and Image-Pro Express software (Media Cybernetics, Inc, Silver Spring, Md.). The results were then compared with the control cells (non-LPS treated EBs). To count the number of cells per EB, the number of DAPI stained nuclei were counted in 10 each of the control and LPS treated EBs.

lipopolysaccharide [LPS]
DNA tailing or fragmentation compared to control [1]: more DNA tailing or fragmentation | DNA tailing or fragmentation (comet tail length, average) ([1]; control 2.48±1.0701 μm): 21.48±12.443 μm | EB formation from hESCs (hESCs (EB formation)): complete inhibition of EB formation | morphology (shape, size or numbers) of treated vs normal EBs [2]: did not show any visible morphological differences | mRNA expression of SDHD, DYPS and CDH1 (EBs; control EBs positive): negative mRNA expression/silencing | methylation status of SDHD, DYPS and CDH1 (MSP after bisulphite treatment) (EBs; control: one of the alleles methylated): both the alleles of these genes were methylated | Brachury protein expression (immunofluorescence) ([3]; 12.5 pg/ml for 48 hrs): no signals | Brachury protein expression (immunofluorescence) ([3]; 12.5 pg/ml for 48 hrs, listed as lipopolysaccharides): loss of expression | localization of HMGB1 (immunofluorescence) ([3]; 12.5 pg/ml for 48 hrs, normal EBs lacked signals): cytoplasmic localization; also recorded: localized in the cytoplasm | Brachury expression on day 9.5 ([3]; EBs exposed to 12.5 pg/ml for 48 hrs, tested on day 9.5): did not show a positive signal
